Source: patent publication US20170334865A1, “DDR2 INHIBITORS AND METHODS OF USING” (WASHINGTON UNIVERSITY, priority 2014, published 2017)
Read-outs that look alike come from different tables or passages of the source. Blank lines part the entries; values can stand above or below the compound they belong to.

Molecular target: T1, DDR2 extracellular domain (ECD) (Homo sapiens, UniProt Q16832)
T1 sequence (Q16832 22-399 limits assumed): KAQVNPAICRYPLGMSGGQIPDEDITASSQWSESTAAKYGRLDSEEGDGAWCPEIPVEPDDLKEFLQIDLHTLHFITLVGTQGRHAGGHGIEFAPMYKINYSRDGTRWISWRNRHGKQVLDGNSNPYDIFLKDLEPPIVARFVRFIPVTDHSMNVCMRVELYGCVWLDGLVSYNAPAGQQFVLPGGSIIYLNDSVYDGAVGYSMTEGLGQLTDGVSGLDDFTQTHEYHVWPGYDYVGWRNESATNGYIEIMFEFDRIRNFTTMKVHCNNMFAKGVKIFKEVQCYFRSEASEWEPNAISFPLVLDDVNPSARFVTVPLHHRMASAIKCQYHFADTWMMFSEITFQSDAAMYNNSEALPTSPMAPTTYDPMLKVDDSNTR
Experiment: in vitro ELISA-type assay, binding of soluble DDR2 ECD to immobilized collagen triple helical peptide
Settings: read-out: IC50, Inhibition of DDR2-collagen binding activity
Method: The activity of the synthesized compounds was assayed using an in vitro ELISA-type assay to measure the binding of purified, soluble DDR2 extracellular domain (ECD) to an immobilized substrate. The substrate used was a high affinity, specific, triple helical peptide (see Xu et al., PLoS One. 2012; 7(12): e52209), which represents the minimal DDR2 specific binding domain within collagens I-III.
DDR2-collagen binding activity was measured in the presence of 250 nM, 500 nM, or 2 μM of test compound or DMSO control.

IC50 (values in nM): 0.558 µM
SMILES: O=c1ccc2nc3ccc(OS(=O)(=O)c4ccccc4)cc3oc-2c1 [WRG-R-7]

IC50 (values given in μM): 1.2 µM
SMILES: O=c1ccc2nc3ccc(OCc4cccnc4)cc3oc-2c1 [WRG-R-9]

IC50 (values in nM): 0.311 µM
SMILES: O=c1ccc2nc3ccc(OCc4ccncc4)cc3oc-2c1 [WRG-R-10]

IC50 (values given in μM): > 100 µM
SMILES: O=c1ccc2nc3ccc(NS(=O)(=O)c4ccccc4)cc3oc-2c1 [WRG-R-20]

IC50 (values in nM): 0.11 µM
SMILES: O=c1ccc2nc3ccc(OCc4ccc(OC(F)F)cc4)cc3oc-2c1 [WRG-R-27]

The remaining lines, values behind:

SMILES: CCOc1ccc2nc3ccc(=O)cc-3oc2c1 [7-ethyloxy-phenoxazin-3-one, reference compound]
IC50 (values given in μM): 4 µM

SMILES: CCCCCOc1ccc2nc3ccc(=O)cc-3oc2c1 [WRG-1, 7-pentyloxy-phenoxazin-3-one]
IC50 (values given in μM): 3.5 µM

SMILES: O=c1ccc2nc3ccc(OCc4ccccc4)cc3oc-2c1 [WRG-2, 7-benzyloxy-phenoxazin-3-one]
IC50 (values in nM): 0.461 µM

SMILES: COCCOc1ccc2nc3ccc(=O)cc-3oc2c1 [WRG-R-4]
IC50 (values given in μM): 14 µM

SMILES: COc1cccc(COc2ccc3nc4ccc(=O)cc-4oc3c2)c1 [WRG-R-5]
IC50 (values in nM): 0.393 µM

SMILES: O=C(Oc1ccc2nc3ccc(=O)cc-3oc2c1)c1ccccc1 [WRG-R-6]
IC50 (values given in μM): 1.41 µM

SMILES: O=C(Nc1ccccc1)Oc1ccc2nc3ccc(=O)cc-3oc2c1 [WRG-R-12]
IC50 (values given in μM): > 100 µM
